Measurements from patent publication US10300107B2, “Compositions and methods for CaMKII inhibitors and uses thereof” (THE REGENTS OF THE UNIVERSITY OF COLORADO, priority 2007, dated 2019).
Entries after “also recorded” stand apart in the source; their conditions may differ. Where no end group is shown, it is not given here.

Key:
CaMKII [1] = assay type: biochemical
Protocol: (§1) CaMKII activity assays. Standard CaMKII assays were done for 1 min at 30° C. previously described, with 20 nM CaMKII (subunit, not holoenzyme concentration), 50 mM PIPES pH 7.2, 0.1 mg/ml BSA, 10 mM MgCl2, 100 μM [γ-^32P] ATP (˜1 Ci/mmol), 1 mM CaCl2, 1-2 μM CaM, and 30-60 μM AC2 peptide (or syntide2). The reactions were spotted onto Whatman P81 phosphocellulose paper rectangles (˜2×2.5 cm). To remove free radioactivity, the paper rectangles were rinsed and washed for 30 min under agitation in 0.5% phosphoric acid or water. […] Radioactivity of the bound peptides was quantified in a Beckman 6000TA scintillation counter by the Cherenkov method. Any changes of the standard protocol were done as indicated. For assays of the GFP-CaMKIIα mutants, kinase amounts were normalized by GFP fluorescence in the extract, and total protein was adjusted with Cos-7 extracts.

CaMKII [2] = test: Kinase panel (kinase profiling service): CaMKII; assay type: biochemical
[3] = tested on: other kinases of the panel (CaMKIV, PKA, PKCα, JNK1α1, MAPK1, raf); assay type: biochemical; conditions: 5 μM peptide
Protocol: Kinase panels. A panel of different kinases was tested utilizing a kinase profiling service (Upstate Biotechnology). 40 min reactions at room temperature contained 0.1% BSA and were started by addition of 10 mM MgAcetate and [γ-^33P-ATP], stopped by 0.1% phosphoryic acid, spotted on filter mats, and washed 3×5 min in 75 mM phosphoric acid and 1× in methanol prior to drying and scintillation counting. CaMKII and IV were activated by 5 mM CaCl2 and 1.7 μM CaM in 40 mM Hepes pH 7.4; substrate was 30 μM […] (SEQ ID NO:22). Buffers and substrates for the other kinases are stated in brackets: PKA (8 mM MOPS pH 7, 0.2 mM EDTA; 30 μM Kemptide), PKCα (20 mM Hepes pH 7.2, 0.3% Triton X-100, 0.1 mg/ml phosphatidylserine, 10 μg/ml diacylglycerol; 0.1 mg/ml histone H1), JNK1α1 (50 mM Tris pH 7.5, 0.1 mM EGTA, 0.1% β-mercapto-ethanol; 3 μM ATF), MAPK1 and raf (25 mM Tris, pH 7.5, 0.02 mM EGTA; 250 μM proprietary substrate and 0.66 mg/ml myelin basic protein, respectively). Reactions in presence of 5 μM CN21a were done in duplicate, and normalized to four parallel reactions without inhibitor.

CaMKI = CaMKI (Homo sapiens, UniProt Q14012); test: CaMKI activity / inhibition; assay type: biochemical
Source text: For curve fit, the Hill coefficient was set as 1.

[4] = molecular target: T1, CaMKII binding to GST-NR2B-c (Homo sapiens, UniProt Q9UQM7); test: Ca2+/CaM-induced CaMKII binding to immobilized GST-NR2B-c; conditions: Western blot of eluted CaMKII
T1 construct: made in house; host or cells: CaMKII: baculovirus/Sf9; GST-NR2B-c and CaM: bacteria
Protocol: CaMKII binding to NR2B-c was assessed as previously described. Briefly, GST-NR2B-c was immobilized on anti-GST coated microtiter plates, then overlaid with 100 nM CaMKII in presence of Ca^2+/CaM and 1 or 5 μM of various CN peptides. After extensive wash, protein was eluted from the plates by boiling in SDS-loading buffer. Eluted CaMKII was detected by Western-blot as described above.

[5] = molecular target: T2, CaM dissociation from CaMKII (Homo sapiens, UniProt Q9UQM7); test: TA-CaM dissociation from CaMKII; assay type: binding; conditions: 5 μM; 150 nM CaMKII, 30 nM TA-CaM
T2 construct: made in house; host or cells: baculovirus/Sf9 cells (CaMKII)
Protocol: TA-CaM dissociation was assessed by increased TA-CaM (30 nM) fluorescence after dissociation from CaMKII or its CaM-binding domain (CBD) (150 nM) during a chase with unlabeled CaM (60 μM). Buffer contained 50 mM Hepes pH 7.4, 150 mM KCl, 2 mM MgCl2, 2 mM MgADP, 2 mM CaCl2, and 0.1 mg/ml BSA. Fluorescence was measured in a time scan (1 sec samples) at 365 nm excitation and 415 nm emission wavelength on a spectro-fluorometer (Fluorolog3; Horiba Jobin Yvon) and was corrected for photobleach (FIG. 16).

CaMKII [6] = molecular target: T3, CaMKII (Homo sapiens, UniProt Q9UQM7); test: CaMKII auto- and protein-phosphorylation (MAP2, T286, T305; immuno-blot); assay type: biochemical; conditions: for CaMKII T305 auto-phosphorylation: CN21 5 μM; for CaMKII T305 auto-phosphorylation / CaMKII T286 auto-phosphorylation: KN93 10 μM; for CaMKII T286 auto-phosphorylation: CN peptides 1-5 μM
T3 construct: made in house; host or cells: baculovirus/Sf9 cells
Protocol: CaMKII auto- and protein-phosphorylation. 10 nM MAP2 (˜140 nM phosphorylation sites) was used instead of substrate peptide, and reaction times were 5 min, unless indicated otherwise. CaMKII concentration was 100 nM subunits (=8.3 nM holoenzymes). Auto- and MAP2-phosphorylation were assessed by Immuno-blot analysis previously derived (Bayer et al., 2002, incorporated herein by reference) with phospho-T286- or -T305-specific antibodies (1:500; PhosphoSolutions) and an anti-phospho-Thr antibody (1:500; Zymed), respectively. Total CaMKIIα was detected with CBα2 antibody (1:2000; GIBCO). Protein were separated on 10% poly-acrylamid SDS Gels, and electro-blotted onto “Protran” 0.2 μm pore nitrocelluse filters (e.g. Schleicher & Schull) or onto PVDF filters (e.g. Perkin Elmer). Alternatively, for quantitative analyses, a vacuum-driven slot-blot manifold (e.g. Schleicher & Schull) was used for transfer onto PVDF membranes. PVDF membranes were air-dried for 15 min, then wetted in Methanol. Blots were blocked in 5% milk in TBS-T (Tris-buffered saline pH 7.6 with 0.1% Tween-20). Antibodies were incubated for 45-60 min at room temperature in 2.5% milk in TBS-T; for the anti-phospho-T305 antibody, 2.5% BSA was used instead. After secondary antibody incubation (anti-mouse or anti-rabbit horseradish peroxidase conjugate; Amersham; 1:4000), detection was done using the “Western Lightning” system (Perkin Elmer) and exposure to “Hyperfilm” (Amersham). For quantitative analysis, chemoluminescence was captured using a ChemiImager 4400 imaging system (Alpha Innotek) instead of film. Only non-saturated images were analyzed, using AlphaEase software.

CaMKII [7] = molecular target: T3, CaMKII; test: CaMKII phosphorylation of crude liver extracts or GST-NR2B-c (autoradiography); assay type: biochemical; conditions: 5 μM
Protocol: Crude liver extracts or NR2B-c were phosphorylated with 100 nM autophosphorylated CaMKII, 2 μM CaM and 40 μM [γ-^32P]-ATP (˜2 Ci/mmole). Pre-auto-phosphorylation (of 300 nM CaMKII) was done for 5 min on ice, in presence of 3 mM CaCl2, 6 μM CaM and 120 μM unlabelled ATP. After addition of [γ-^32P]-ATP and inhibitors as indicated, 2 min reactions at 30° C. were started by addition of substrate protein extract (⅓^rd to 1/12th of total reaction volume), and stopped with 25 mM EDTA. Phosphorylation was detected by autoradiography after gel electrophoresis.

[8] = tested on: CaMKII T-site mutants W237R and 1205K; test: Kinase assay with GFP-CaMKIIα T-site mutants; assay type: biochemical; conditions: substrate syntide2
Source text: In another example, FIG. 3. […] FIG. 3A represents a model of CaMKII kinase domain (Rosenberg et al., 2005) with the substrate binding S-site (indicated), the T286-region binding T-site (indicated), and the regulatory region (shown as ribbon). The arrow indicates the proposed orientation of CN21a binding to the T-site, when the regulatory region is displaced after activation. […] Results are normalized to maximal kinase activity without inhibitor. Error bars show s.e.m. […] Bound CaMKII was eluted and detected by Western blot.
as §1

hippocampal neurons = test: Imaging of neuronal filopodia motility; assay type: cell-based, rat; conditions: 20 min incubation
Protocol: In another example, motility of hippocampal neurons was analyzed. […] Images of GFP expressing hippocampal neurons (5-6 days in vitro) were acquired at 30° C. in 20 s intervals in order to assess motility.
Imaging of neuronal filopodia motility was done similarly as previously described. Hippocampal cultures were prepared from newborn Sprague Dawley rats (Harlan) as previously described, plated onto poly-D-lysine coated glass bottom dishes (MatTek) at a density of ˜2.5×10^6 cells/cm^2 and maintained in Neurobasal A medium with penicillin/streptomycin (50 units/ml), glutamax (2 mM) and B27 supplement (Invitrogen). […] After 5 days in vitro, neurons were transfected with a GFP expression construct (Clonetech) using lipofectamine 2000 (Invitrogen), as described. On the next day neurons were imaged in culture medium on for example, a Zeiss Axiovert 200M systems equipped with a 40× oil immersion objective, Cool Snap HQ CCD camera (Roeper Scientific), Xenon lamp LB-LS/17 (Sutter Instruments) and climate control set to 30° C. and 5% CO2. Fluorescence Images were acquired and analyzed using SlideBook software (Intelligent Imaging Innovations). 16 images were taken in 20 s time intervals, at 100 ms exposure time and bin factor 2. Subtraction image (Δ image) stacks were generated by subtracting one stack (first image deleted) from its duplicate (last image deleted). […]

Langerhans' islets = test: Glucose-induced insulin secretion from isolated Langerhans' islets; assay type: cell-based, rat; conditions: 11 mM glucose; EGTA 0.5 mM, KN93 10 μM, antCN27 5 μM, tatCN21 5 μM
Protocol: Insulin secretion. Langerhans' islets acutely isolated from adult male Wistar rats (Harlan) were obtained. […] Inhibitors or EGTA were added 30 min before stimulation. Insulin secreted into the medium during 90 min stimulation was measured using an ELISA kit (CrystalChem).

[9] = tested on: hippocampal and cortical cultures; test: Glutamate induced neuronal cell death measured by LDH release; assay type: cell-based, rat
Protocol: In another example, neuronal cell death is measured by LDH release. In this exemplary method, glutamate was used to induce neuronal cell death, A portion of CaMKIIN was fused to a cell penetrating molecule to generate tatCN21a construct.

[10] = tested on: 10DIV hippocampal neurons; test: NMDA induced cell death; assay type: cell-based; conditions: NMDA plus CNQX 5 minutes, assayed 24 hours after insult
Protocol: Neurons were co-transfected with siRNA or non-targeting RNA (NT) at 8DIV and were assayed at day 10. […] Cells were treated with 300 mM NMDA plus 50 mM CNQX (an AMPAR inhibitor) for 5 minutes and cell death was assayed 24 hours after insult. […] Increased AMPAR expression is thought to lead to increased cell death. Thus, by inducing cell death with NMDA and an AMPAR inhibitor, the AMPAR component was reduced.

CaMKII [11] = molecular target: T3, CaMKII; test: Autonomous CaMKII activity (pre-autophosphorylated CaMKII); assay type: biochemical
Protocol: (§2) Stimulated CaMKII activity was assessed using purified CaMKII, [γ^32P]ATP, and the CaMKII substrate, syntide2. Reaction was initiated by addition of calcium and calmodulin. To measure autonomous activity, CaMKII was pre-autophosphorylated by incubation with calcium and calmodulin, which was then chelated by addition of EDTA prior to adding the kinase to syntide2 and [γ^32P]ATP. […] To measure self-association, purified CaMKII was incubated for five minutes with 1mM ADP, calcium and calmodulin, and the appropriate inhibitor. The reaction mixture was then centrifuged to pellet the self-associated kinase. The supernatant (S) was removed and saved and the pellet (P) was resuspended. Both were then resolved by SDS-PAGE and western-blotted for CaMKII. Self-associated kinase is found in the pellet.

CaMKII [12] = molecular target: T3, CaMKII; test: CaMKII self-association in vitro; assay type: biochemical
Protocol: as §2

calmodulin (CaM) = calmodulin (CaM) (Homo sapiens, UniProt P0DP23); test: Binding to calmodulin (slot blot, blot overlay, TA-CaM competition with CBD)
Protocol: TA-labeled CaM represents reduced fluorescence after binding to CaMKII or its CaM binding domain (CBD; −0.05 nM kD for CaM^5; see also FIG. 9G).
Measured was AC2 phosphorylation as described^4. Error bars show s.e.m.

Chain of CaMKI (Q14012 whole entry, species assumed): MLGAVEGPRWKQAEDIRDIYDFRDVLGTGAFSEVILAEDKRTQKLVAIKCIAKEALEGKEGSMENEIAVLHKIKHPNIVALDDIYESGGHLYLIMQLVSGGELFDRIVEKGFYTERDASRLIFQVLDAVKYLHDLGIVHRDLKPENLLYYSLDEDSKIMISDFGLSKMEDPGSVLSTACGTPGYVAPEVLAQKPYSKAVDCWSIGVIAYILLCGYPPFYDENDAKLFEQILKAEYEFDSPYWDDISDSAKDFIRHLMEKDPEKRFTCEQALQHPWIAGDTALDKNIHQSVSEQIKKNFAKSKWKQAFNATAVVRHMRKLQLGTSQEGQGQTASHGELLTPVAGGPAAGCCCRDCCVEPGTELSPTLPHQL

KRPPKLGQIGRSKRVVIEDDR [CN21]
inhibition of CaMKII isoforms α and β (CaMKII [1]): inhibit both major brain CaMKII isoforms, α and β | inhibitory potency on CaMKII activity (CaMKII [1]; CN truncation peptides, substrate peptides AC2 or syntide 2, listed as CN21a): contains the full inhibitory potency; also recorded: full inhibitory effect | IC50 (CaMKII [1]; phosphorylation of syntide 2, read-out: IC50 of CaMKII inhibition): ~100 nM | mechanism of CaMKII inhibition (CaMKII [1]; versus substrate AC2, Lineweaver-Burk plot): competitive with AC2 | CaMKII activity in kinase panel (CaMKII [2]; 5 μM peptide): completely blocked | activity of the other kinases of the panel [3]: not affected | effect on CaMKI activity (CaMKI): no significant effect | CaMKII binding to immobilized GST-NR2B-c / NR2B [4]: efficiently blocked | CaM dissociation from CaMKII [5]: slowed down CaM dissociation from CaMKII | CaMKII T305 auto-phosphorylation (CaMKII [6]): blocked T305 | CaMKII T305 auto-phosphorylation (CaMKII [6]; listed as CN21a): blocks | CaMKII T286 auto-phosphorylation (CaMKII [6]): no significant effect | CaMKII T286 auto-phosphorylation (CaMKII [6]; listed as CN21a): not T286 autophosphorylation | CaMKII phosphorylation of bacterially expressed GST-NR2B-c (CaMKII [7]): blocks CaMKII phosphorylation | CaMKII phosphorylation of crude liver protein extracts (CaMKII [7]): blocks CaMKII phosphorylation | activity of CaMKII T-site mutants W237R and 1205K compared to GFP-CaMKIIα wild type [8]: significantly less affected

tatCN21: CN21 fused to the cell penetrating tat sequence (YGRKKRRQRRRKRPPKLGQIGRSKRVVIEDDR)
CaMKII-mediated AC2/AC3 phosphorylation at varying CaM concentrations (CaMKII [1]; 1 μM peptide): strongly inhibited | calcium and calmodulin stimulated CaMKII activity (CaMKII [1]; substrate syntide2): inhibit calcium and calmodulin stimulated CaMKII activity | CaMKII activity in kinase panel (CaMKII [2]; 1 μM peptide): completely blocked CaMKII activity | CaMKII activity in kinase panel (CaMKII [2]; 5 μM peptide): blocked CaMKII activity | effect on CaMKI activity (CaMKI): dramatically reduces CaMKI activity | CaMKII binding to immobilized GST-NR2B-c / NR2B [4]: efficiently blocked | CaMKII binding to immobilized GST-NR2B-c / NR2B ([4]; listed as TatCN21): inhibited binding | MAP2 (substrate) phosphorylation by CaMKII (CaMKII [6]; 1-5 μM peptide): blocked MAP2 | CaMKII T286 auto-phosphorylation (CaMKII [6]): not T286 phosphorylation | motility in hippocampal neurons (hippocampal neurons): inhibits motility in hippocampal neurons | glucose-induced insulin secretion (Langerhans' islets): inhibited | glutamate induced cell death ([9]; 7DIV cortical, added 1-6 hours post insult): inhibits glutamate induced cell death | glutamate induced neuronal cell death ([9]; added 1 h after the insult): protective also when added 1 h after the insult | glutamate induced neuronal cell death ([9]; added 1 h after the insult, listed as tatCN21a): also when added 1h after the insult | glutamate induced neuronal cell death ([9]; present during the insult): reduce by half | glutamate induced neuronal cell death ([9]; present during the insult, listed as tatCN21a): inhibited glutamate induced neuronal cell death | NMDA induced cell death [10]: reduces NMDA-induced cell death | autonomous CaMKII activity (CaMKII [11]): inhibits autonomy; also recorded: blocks not only stimulated but also autonomous CaMKII activity | CaMKII self-association in vitro (CaMKII [12]): inhibited | competition with CBD for binding of TA-labeled CaM (calmodulin (CaM)): did not show any competition and not
